Results: article PMC6346587, “Glucose 6-phosphate dehydrogenase 6-phosphogluconolactonase: characterization of the Plasmodium vivax enzyme and inhibitor studies” (Malaria Journal, 2019)
Where two headings read alike, the source gives them in different places.

Experiments:
[1] = system: cytosolic H2O2 levels of NF54-attB; design: method as in PMID 28874682; details: roGFP2-Orp1 probe, NF54-attB blood stages; cited from earlier work
PfGluPho [2] = molecular target: T1, PfGluPho (Plasmodium falciparum, UniProt Q8IKU0); details: ML304; read-out: IC50 on PfGluPho; cited from earlier work
T1 construct: made in house
T1 sequence (Q8IKU0 1-910): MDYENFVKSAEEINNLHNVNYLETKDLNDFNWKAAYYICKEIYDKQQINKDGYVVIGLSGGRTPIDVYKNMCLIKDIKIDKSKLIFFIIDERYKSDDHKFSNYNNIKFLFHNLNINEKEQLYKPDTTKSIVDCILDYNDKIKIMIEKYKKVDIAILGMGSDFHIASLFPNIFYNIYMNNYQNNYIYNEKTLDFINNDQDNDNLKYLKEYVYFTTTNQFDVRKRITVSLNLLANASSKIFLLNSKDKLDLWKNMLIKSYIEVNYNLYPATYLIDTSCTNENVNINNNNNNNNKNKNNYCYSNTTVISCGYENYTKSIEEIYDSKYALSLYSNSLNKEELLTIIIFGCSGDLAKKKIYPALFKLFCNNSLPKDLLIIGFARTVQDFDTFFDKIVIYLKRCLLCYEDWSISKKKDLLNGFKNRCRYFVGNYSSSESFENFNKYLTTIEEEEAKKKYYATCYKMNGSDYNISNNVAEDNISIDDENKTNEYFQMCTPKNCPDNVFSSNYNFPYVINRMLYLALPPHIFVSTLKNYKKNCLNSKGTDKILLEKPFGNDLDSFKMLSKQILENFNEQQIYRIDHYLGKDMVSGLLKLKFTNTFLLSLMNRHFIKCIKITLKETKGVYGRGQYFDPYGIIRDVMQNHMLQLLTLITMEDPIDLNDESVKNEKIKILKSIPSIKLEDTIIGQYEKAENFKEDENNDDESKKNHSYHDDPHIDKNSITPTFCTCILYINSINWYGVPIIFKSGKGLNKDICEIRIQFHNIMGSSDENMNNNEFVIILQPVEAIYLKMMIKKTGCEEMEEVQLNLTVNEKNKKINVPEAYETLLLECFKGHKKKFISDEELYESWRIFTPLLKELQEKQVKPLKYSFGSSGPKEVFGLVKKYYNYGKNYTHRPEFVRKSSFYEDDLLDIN

PfGluPho [3] = molecular target: T1, PfGluPho; test: PfGluPho G6PD activity inhibition assay; format: biochemical
Experimental: (§1) To identify potential inhibitors of PvG6PD, compounds with already known effects on PfGluPho (ellagic acid and derivatives, ML304) were tested. Additionally, several compound libraries of the Helmholtz Center for Infection Research, Brunswick, were screened against PfGluPho using the high-throughput-compatible assay systems described in Preuss et al.. […] Based on structure-activity relationship studies, a set of new potential G6PD inhibitors (Fig. 8) was then synthesized and assessed. First, the IC50 values of the compounds were determined, followed by mechanistic characterization of the mode of action. To test for selectivity of the compounds, the IC50 values of the compounds on PvG6PD, PfGluPho, and hG6PD were determined in parallel.
(§2) All measurements were performed in 96-well plates, half area (Greiner Bio-One, Frickenhausen, Germany) using a Tecan Infinite M200 plate reader (Maennedorf, Switzerland). The compounds were dissolved in 100% DMSO and afterwards diluted in assay buffer to the required concentrations. Different compound concentrations were added to a mixture of enzyme and NADP^+ in assay buffer. Concentrations of substrates differed depending on the enzyme; an overview is given in the Additional file 4. The reaction was started by adding G6P, and the increase of NADPH was monitored by measuring the absorbance at 340 nm. To increase the sensitivity of the assay, some measurements were reproduced, detecting the fluorescence of NADPH at ex340/em460. […] A negative control containing no compound was defined as 0% inhibition; a positive control lacking the substrate G6P was defined as 100% inhibition. For evaluations using GraphPad Prism and Microsoft Excel, only a linear increase in absorbance/fluorescence was considered. For the mechanistic characterization of the compounds, either NADP^+ or G6P were titrated at different compound concentrations around the IC50, while keeping the second substrate in saturation. The initial slope was plotted as Michaelis–Menten curves and Lineweaver–Burk plots using GraphPad Prism; KM values and Vmax were calculated with GraphPad Prism software.

PvG6PD = PvG6PD (Plasmodium vivax, UniProt A5K3M1); test: PvG6PD enzyme inhibition assay (NADPH formation, absorbance 340 nm / fluorescence); format: biochemical; details: for IC50: read-out: IC50 on PvG6PD
Experimental: The G6PD activity of PfGluPho variants was measured spectrophotometrically as described for the wt enzyme. Kinetic characterization of PvG6PD was performed using the same assay system at an Evolution 300 spectrophotometer (Thermo Scientific, Dreieich, Germany). In brief, the initial reduction of NADP^+ to NADPH by PvG6PD was monitored by measuring the absorbance at 340 nm. The 500 µL reaction mixture contained 200 µM NADP^+ and varying concentrations of PvG6PD in an assay buffer of 100 mM Tris–HCl, pH 8.0, 10 mM MgCl2, and 0.5 mM EDTA at 25 °C. The reaction was started by adding 800 µM G6P. The KM for NADP^+ was determined by titrating NADP^+ from 2 to 400 µM at 800 µM G6P; the KM for G6P was measured accordingly by titrating G6P from 2 to 1200 µM at 200 µM NADP^+. KM values were calculated using GraphPad Prism. Since the KM for G6P was considerably higher than the value measured for PfGluPho [14], a concentration of 800 µM G6P was defined as substrate saturation for PvG6PD.
as §1, §2

P. falciparum 3D7 = test: [3H]-hypoxanthine incorporation assay on asexual blood stages; format: cell-based, Plasmodium falciparum; details: 72 h [3H]-hypoxanthine incorporation assay
recombinant hGrx1-roGFP2 = molecular target: T2, recombinant hGrx1-roGFP2 (Homo sapiens, UniProt P35754); test: In vitro interaction with recombinant hGrx1-roGFP2 probe; format: biochemical; details: at the concentrations used in this study
T2 construct: made in house
Experimental: The sensor hGrx1–roGFP2 (human glutaredoxin 1-reduction–oxidation sensitive green fluorescent protein 2) was recently transiently expressed in 3D7 P. falciparum parasites by using the pARL1a(+) expression vector. Heterologous overexpression of hGrx1–roGFP2 for the evaluation of the in vitro interactions of ML304 and anti-malarial drugs with the recombinant redox probe was performed according to [35].
ML304 was used at concentrations of 10 nM to 1 mM in degassed standard reaction buffer (100 mM potassium phosphate, 1 mM EDTA, pH 7.0). […] The characterization of the in vitro interaction of hGrx1–roGFP2 with ML304 was performed according to Schuh et al..

PvG6PD, sequence (A5K3M1 entry or part of it): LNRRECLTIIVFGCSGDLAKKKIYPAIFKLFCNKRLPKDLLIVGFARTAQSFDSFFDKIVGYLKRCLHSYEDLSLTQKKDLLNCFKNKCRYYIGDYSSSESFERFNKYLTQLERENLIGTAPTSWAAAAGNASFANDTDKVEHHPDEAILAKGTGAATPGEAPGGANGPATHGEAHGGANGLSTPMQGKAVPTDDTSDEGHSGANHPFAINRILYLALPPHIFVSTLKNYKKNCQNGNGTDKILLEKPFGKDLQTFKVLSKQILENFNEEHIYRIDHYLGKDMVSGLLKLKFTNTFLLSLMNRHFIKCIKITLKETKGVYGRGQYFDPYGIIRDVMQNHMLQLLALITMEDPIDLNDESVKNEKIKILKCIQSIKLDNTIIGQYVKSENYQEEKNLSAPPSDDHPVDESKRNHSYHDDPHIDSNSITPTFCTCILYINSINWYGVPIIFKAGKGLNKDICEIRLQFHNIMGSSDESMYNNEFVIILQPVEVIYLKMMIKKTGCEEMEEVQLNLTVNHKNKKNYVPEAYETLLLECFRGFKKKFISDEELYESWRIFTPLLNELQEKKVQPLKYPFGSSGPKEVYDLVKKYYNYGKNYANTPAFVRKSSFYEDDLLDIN

In the case of `CCN1CCC[C@@H]1CNC(=O)c1ccc2c(c1)NC(=O)c1cccc(C)c1S2` [ML304], the “Effect on cytosolic H2O2 levels” value [1] is given as “significantly increase”, the IC50 (PfGluPho [2]) is given as 190 nM and the “Type of inhibition of PfGluPho towards G6P” value (PfGluPho [3]; G6P titrated) is given as “competes with G6P”. The “Type of inhibition of PfGluPho towards NADP+” value (PfGluPho [3]; NADP+ titrated) was “non-competitive inhibitor”, the Ki (PfGluPho [3]; competes with G6P, read-out: Ki on PfGluPho towards G6P) was 230 ± 160 nM and the “Type of inhibition of PvG6PD towards G6P” value (PvG6PD; G6P titrated) was “competitive inhibitor”. The “Type of inhibition of PvG6PD towards NADP+” value (PvG6PD; NADP+ titrated) was “mixed type inhibitor”, the Ki (PvG6PD; competitive towards G6P, read-out: Ki on PvG6PD towards G6P) was 0.7 ± 0.3 µM and the Ki (PvG6PD; mixed type towards NADP+, read-out: Ki on PvG6PD towards NADP+) was 16.3 ± 8.8 µM. For the same compound, the IC50 (PvG6PD; substrate saturation (800 µM G6P, 200 µM NADP+)) was 15.3 ± 0.9 µM, the IC50 (PvG6PD; substrates close to KM (85 µM G6P, 15 µM NADP+)) was 2.6 ± 0.8 µM and the EC50 (P. falciparum 3D7) was 471 ± 39.5 nM. For the same compound, the “Direct interaction with recombinantly purified hGrx1-roGFP2 probe” value (recombinant hGrx1-roGFP2) was “excluded a direct interaction”.
